Test results taken from patent US20250367117A1, “VITAMIN C-ENCAPSULATED LIPOSOME AND PREPARATION METHOD THEREFOR” (Hankook Liposome Co., Ltd., priority 2022, published 2025).

Assay: Bioavailability after oral administration: blood (serum) vitamin C concentration by HPLC
Type: in vivo
Details: male, SD rat, 10 ml(200 mg)/kg
Experimental: The experimental animals used were SD rats (Samtago BIO KOREA Co., Ltd.), which have anatomical and physiological characteristics similar to humans and have the advantage of being useful as a pharmacokinetic model. The SD rats were male, 7-week-old (240-260 g), and were raised at a temperature of 20-24° C. and a relative humidity of 40-70%, and general symptoms were observed once a day for 5 days before the test. Solid feed for experimental animals (Purina Feed®) was provided, and the rats were allowed to consume it freely. […] As a control group, food vitamin C (purity 99.9%) was used, and the weight was measured and dissolved in purified water to prepare it. […] After putting the test substance into a 3 ml syringe, the zonde for rat oral administration was combined, and the test substance was administrated into the rat. For blood collection, about 300 μl of blood was collected from the jugular vein of all subjects in each group using a disposable syringe (1 ml, 26G, BD Biosciences, USA) at the scheduled time after administration. The blood was placed in a clean, light-shielded 1.5 ml amber tube, allowed to coagulate for 30 minutes at room temperature, and then centrifuged to separate the serum. The oral administration time points were 0, 1, 2, 4, 6, 8, 10, 12, and 24 hours (total of 9 time points). For blood sample separation and analysis, the harvested whole blood was coagulated and centrifuged at 3,000 rpm for 10 minutes using a centrifuge (Micro17R, Hanil, KOR) to separate the serum. Each 100 μl×1 tube was placed in a 1.5 ml Amber tube labeled with the test type, animal number, and blood collection time and stored in an ultra-low temperature freezer (approximately −70° C.). When testing, the stored samples were thawed at room temperature and the blood concentration of vitamin C was analyzed using HPLC (Alliance e2695, Waters, USA). […] For sample processing and analysis, 70 μL of the sample was taken and placed in a microtube, 70 μL of metaphosphoric acid (0.1 g/mL in water) was added, and then mixed using a vortexer for 30 seconds. The mixture was centrifuged at 14,000 rpm for 10 minutes, and the supernatant was transferred to a vial and injected into the HPLC for analysis. Since vitamin C is an endogenous substance, it was used after serum dialysis.

Cmax: 12000 ng/mL | Tmax: 7.67 h | AUC(0-t) (read-out: AUC0-24 of vitamin C): 234 µg·h/mL | half-life (read-out: T1/2 of vitamin C (converted)): 27.8 h
SMILES: O=C1O[C@H]([C@@H](O)CO)C(O)=C1O [vitamin C, ascorbic acid]
